Laboratory results: publication PMC5519534, “AM-37 and ST-36 Are Small Molecule Bombesin Receptor Antagonists” (Frontiers in Endocrinology, 2017)
Marks after values point to notes of the source that are not given here. Where a SMILES comes first, the peptide text is derived from it. [ ]: non-standard residue; d: D form. Nle = CCCC[C@H](N)C(=O)O; βAla = NCCC(=O)O

Columns and labels:
BB1R [1] = molecular target: T1, BB1R (Homo sapiens, UniProt P28336); assay: Inhibition of specific 125I-BA1 binding to BB1R-transfected NCI-H1299 cells
T1 construct: expressed in transfected cells; host or cells: NCI-H1299
T1 sequence (P28336 whole entry): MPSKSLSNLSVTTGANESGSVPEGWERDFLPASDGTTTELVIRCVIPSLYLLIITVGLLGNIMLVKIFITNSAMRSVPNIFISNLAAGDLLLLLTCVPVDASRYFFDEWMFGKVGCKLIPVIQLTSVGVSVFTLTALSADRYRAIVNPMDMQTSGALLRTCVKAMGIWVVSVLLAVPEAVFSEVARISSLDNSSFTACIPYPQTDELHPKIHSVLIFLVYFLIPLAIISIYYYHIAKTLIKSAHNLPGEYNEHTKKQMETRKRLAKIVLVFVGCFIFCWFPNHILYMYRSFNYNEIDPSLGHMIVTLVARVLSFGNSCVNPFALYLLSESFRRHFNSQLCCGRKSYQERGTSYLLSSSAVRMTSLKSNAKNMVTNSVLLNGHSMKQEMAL
Protocol: (§1) Non-small cell lung cancer cell line NCI-H1299 (ATCC, Manassas, VA, USA) was stably transfected with BB1R, BB2R, and BRS-3. The transfected cells were grown in RPMI-1640 containing 10% fetal bovine serum (FBS) with 0.3 mg/ml geneticin (Invitrogen, Grand Island, NY, USA). The transfected cells, which contained approximately 100,000 receptors/cell, were weekly split using trypsin/EDTA ([13]). In addition, lung cancer cell lines NCI-H727, H1299, and H1975 were purchased from ATCC and cultured in RPMI-1640, which contained 10% FBS. The cell types were derived from different human biopsy specimens. These studies were approved by the NIDDK biospecimens and biosafety committees.
(§2) The ability of AM-37, ST-36, AM-13, and AM-14 to inhibit specific ^125I-BA1 binding to NSCLC cells transfected stably with BB1R, BB2R, and BRS-3 was investigated. NSCLC cells were placed in 24 well plates. When confluent, the cells were washed three times with PBS. The cells were incubated with binding buffer (PBS containing 0.25% bovine serum albumin and 0.025% bacitracin, Sigma-Aldrich, St. Louis, MO, USA). Various concentrations of AM-37, ST-36, AM-13, or AM-14 were added to the cells for 10 min, followed by 100,000 cpm of ^125I-BA1 (0.16 nM) and incubated at 37°C for 30 min when equilibrium of binding was reached. The cells were rinsed three times with binding buffer for 2 min at 4°C. The cells that contained bound peptide dissolved in 0.2 N NaOH and counted in a Wallac 1470 γ-counter. The Ki was calculated as described ([15]).

BB2R [2] = molecular target: T2, BB2R (Homo sapiens, UniProt P30550); assay: Inhibition of specific 125I-BA1 binding to BB2R-transfected NCI-H1299 cells; settings: for Ki: inhibition of specific 125I-BA1 binding, BB2R-transfected NCI-H1299 cells
T2 construct: expressed in transfected cells; host or cells: NCI-H1299
T2 sequence (P30550 whole entry): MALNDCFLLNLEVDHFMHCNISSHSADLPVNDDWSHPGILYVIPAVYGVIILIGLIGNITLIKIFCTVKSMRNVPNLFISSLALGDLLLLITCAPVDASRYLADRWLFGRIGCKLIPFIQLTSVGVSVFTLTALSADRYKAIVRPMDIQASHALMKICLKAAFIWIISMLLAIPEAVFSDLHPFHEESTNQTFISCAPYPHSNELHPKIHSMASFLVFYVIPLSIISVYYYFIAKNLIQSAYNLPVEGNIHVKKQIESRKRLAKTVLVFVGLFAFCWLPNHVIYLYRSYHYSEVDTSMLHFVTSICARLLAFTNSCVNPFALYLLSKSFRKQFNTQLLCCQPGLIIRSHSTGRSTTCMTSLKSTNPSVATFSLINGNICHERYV
Excerpt: Non-small cell lung cancer cell line NCI-H1299 (ATCC, Manassas, VA, USA) was stably transfected with BB1R, BB2R, and BRS-3. […] The transfected cells, which contained approximately 100,000 receptors/cell, were weekly split using trypsin/EDTA ([13]). […] The cell types were derived from different human biopsy specimens. These studies were approved by the NIDDK biospecimens and biosafety committees.
NSCLC cells were placed in 24 well plates. When confluent, the cells were washed three times with PBS. […] The cells were rinsed three times with binding buffer for 2 min at 4°C. […] The Ki was calculated as described ([15]).

BRS-3 [3] = molecular target: T3, BRS-3 (Homo sapiens, UniProt P32247); assay: Inhibition of specific 125I-BA1 binding to BRS-3-transfected NCI-H1299 cells; settings: for Ki: inhibition of specific 125I-BA1 binding, BRS-3-transfected NCI-H1299 cells
T3 construct: expressed in transfected cells; host or cells: NCI-H1299
T3 sequence (P32247 1-399): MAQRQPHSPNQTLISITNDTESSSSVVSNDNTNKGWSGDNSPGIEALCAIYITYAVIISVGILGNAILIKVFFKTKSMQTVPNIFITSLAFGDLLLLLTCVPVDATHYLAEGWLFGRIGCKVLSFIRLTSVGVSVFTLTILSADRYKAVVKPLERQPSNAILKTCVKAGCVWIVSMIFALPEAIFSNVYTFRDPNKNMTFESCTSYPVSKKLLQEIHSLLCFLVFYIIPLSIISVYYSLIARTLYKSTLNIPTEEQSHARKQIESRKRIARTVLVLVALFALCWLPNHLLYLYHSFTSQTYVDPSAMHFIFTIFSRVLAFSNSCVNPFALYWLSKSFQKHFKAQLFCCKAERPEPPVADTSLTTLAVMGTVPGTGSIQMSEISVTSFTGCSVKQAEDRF
Protocol: as §1, §2

BB1R [4] = molecular target: T1, BB1R; assay: Cytosolic Ca2+ (Fura-2AM) in NCI-H1299 cells transfected with BB1R; assay type: cell-based; settings: for Effect on the increase in cytosolic Ca2+ caused by BA1 / Effect on basal cytosolic Ca2+: 30 µM, BB1R-transfected cells
Protocol: as §1
(§3) The ability of AM-37, ST-36, AM-13, and AM-14 to function as BBR antagonists was investigated. NSCLC cells transfected with BB1R, BB2R, and BRS-3 were harvested and loaded with Fura-2AM (Calbiochem, La Jolla, CA, USA) as described previously ([16]). The excitation ratio was determined at 340 and 380 nm with an emission wavelength of 510 nm.

BB2R [5] = molecular target: T2, BB2R; assay: Cytosolic Ca2+ (Fura-2AM) in NCI-H1299 cells transfected with BB2R; assay type: cell-based; settings: for Effect on the increase in cytosolic Ca2+ caused by BA1 / Effect on basal cytosolic Ca2+: 30 µM, BB2R-transfected cells
Protocol: as §1, §3

BRS-3 [6] = molecular target: T3, BRS-3; assay: Cytosolic Ca2+ (Fura-2AM) in NCI-H1299 cells transfected with BRS-3; assay type: cell-based; settings: for Effect on the increase in cytosolic Ca2+ caused by BA1 / Effect on basal cytosolic Ca2+: 30 µM, BRS-3-transfected cells
Protocol: as §1, §3

NSCLC cells = assay: Ionomycin-induced cytosolic Ca2+ in NSCLC cells (specificity); assay type: cell-based, human; settings: for Effect on the ability of ION to increase Ca2+: 5 µg/ml ionomycin
Protocol: as §3

EGFR = EGFR tyrosine phosphorylation by western blot, NCI-H1299 cells transfected with BB2R; assay type: cell-based, human; settings: for Effect of pretreatment on BA1-induced EGFR tyrosine phosphorylation: 10 µM pretreatment, then 100 nM BA1
Protocol: (§4) The tyrosine phosphorylation of the EGFR and ERK was investigated by western blot. NSCLC cells transfected with BB1R, BB2R, and BRS-3 were placed in 10 cm dishes. When the cells were confluent, they were placed in SIT medium (RPMI-1640 containing 3 × 10^−8 M sodium selenite, 5 µg/ml bovine insulin, and 10 µg/ml apo-transferrin; Sigma-Aldrich, St. Louis, MO, USA) for 3 h. […] Cell extracts were made as described previously ([16]), and 600 µg of protein extract was immunoprecipitated with 4 µg anti-phosphotyrosine antibody (Becton Dickenson, USA). The immunoprecipitates were fractionated using a 4–20% polyacrylamide gel (Novex, San Diego, CA, USA). Proteins were transferred to a nitrocellulose membrane and incubated with 2 µg anti-EGFR or anti-ERK antibody (Cell Signaling Technologies, Danvers, MA, USA). After washing the blot, it was incubated with enhanced chemiluminescence detection reagent (Thermo Scientific) for 5 min and exposed to Biomax XAR film (Carestream, Rochester, NY, USA). The band intensity was determined using a Kodak image station 440 densitometer. Alternatively, 20 µg of protein extract was loaded onto polyacrylamide gels and after transfer to nitrocellulose, the blot was probed with anti-PY^1,068-EGFR, anti-EGFR, anti-PY^204ERK, or anti-ERK (Cell Signaling Technologies, Danvers, MA, USA).

ERK = ERK tyrosine phosphorylation by western blot, NCI-H1299 cells transfected with BB2R; assay type: cell-based, human; settings: for Effect of pretreatment on BA1-induced ERK tyrosine phosphorylation: 10 µM pretreatment, then 100 nM BA1
Protocol: as §4

NCI-H1299 cells = assay: MTT proliferation assay, NCI-H1299; assay type: cell-based, human; settings: for IC50: Homo sapiens, NCI-H1299, 48 h, MTT, 2 days, SIT medium
Protocol: The proliferation of NSCLC cells was investigated using the 3-(4,5-demethylthiazol-2-yl)-[…]-2H-tetrazolium bromide (MTT) assay as described previously ([16]). NCI-H727, H1299, and H1975 cells were placed in SIT medium and varying concentration of AM-37, ST-36, AM-13, or AM-14 added. After 2 days, 0.1% MTT solution (15 µl) was added. After 4 h, DMSO (150 µl) was added and the absorbance at 570 nm was determined.

NTR = molecular target: T4, NTR (Homo sapiens, UniProt P30989); assay: Neurotensin-induced cytosolic Ca2+ in NSCLC cells (specificity); assay type: cell-based; settings: 10 nM neurotensin
T4 construct: endogenous in cells; host or cells: NCI-H1299 (transfected with bombesin receptors)
T4 sequence (P30989 whole entry): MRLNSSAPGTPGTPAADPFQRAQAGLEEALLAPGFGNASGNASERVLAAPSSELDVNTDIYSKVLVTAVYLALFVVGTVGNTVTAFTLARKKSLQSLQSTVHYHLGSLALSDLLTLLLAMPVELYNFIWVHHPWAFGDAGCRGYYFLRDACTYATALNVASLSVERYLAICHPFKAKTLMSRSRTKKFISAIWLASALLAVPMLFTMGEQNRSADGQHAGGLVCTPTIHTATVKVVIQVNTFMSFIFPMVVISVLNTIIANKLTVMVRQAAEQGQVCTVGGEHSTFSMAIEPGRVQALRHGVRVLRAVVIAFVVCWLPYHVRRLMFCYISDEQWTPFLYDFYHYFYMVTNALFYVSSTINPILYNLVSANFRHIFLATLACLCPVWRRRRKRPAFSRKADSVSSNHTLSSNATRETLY

[7] = 30 µM small molecule followed by 10 nM BA1
[8] = 100 nM BA1, relative to control

Ki (BB1R [1]) [µM]	Ki (BB2R [2]) [µM]	Ki (BRS-3 [3]) [µM]	Effect on the increase in cytosolic Ca2+ caused by BA1 (BB1R [4]; 10 nM BA1)	Effect on basal cytosolic Ca2+ (BB1R [4])	Increase in cytosolic Ca2+, BB2R (BB2R [5]; [7])	Effect on the increase in cytosolic Ca2+ caused by BA1 (BB2R [5]; 10 nM BA1)	Effect on basal cytosolic Ca2+ (BB2R [5])	Increase in cytosolic Ca2+, BRS-3 (BRS-3 [6]; [7])	IC50 (NCI-H1299 cells) [µM]	Increase in cytosolic Ca2+, BB1R (BB1R [4]; [7])	Effect on the increase in cytosolic Ca2+ caused by BA1 (BRS-3 [6]; 10 nM BA1)	Effect on basal cytosolic Ca2+ (BRS-3 [6])	Effect on the ability of NT to increase cytosolic Ca2+ (NTR)	SMILES	Effect on the ability of ION to increase Ca2+ (NSCLC cells)	Effect of pretreatment on BA1-induced EGFR tyrosine phosphorylation (EGFR)	Effect of pretreatment on BA1-induced ERK tyrosine phosphorylation (ERK)	other results
7.9 ± 0.9	6.9 ± 0.3	10.8 ± 0.9			0^a nM	blocked	no effect	0^a nM	22	0^a nM	blocked	no effect	no effect	COc1ccc(NC(=O)N[C@@H](Cc2c[nH]c3ccccc23)C(=O)NCC2(c3cccnc3)CCCCC2)cc1 [ST-36]		addition of BA1 had little effect	decreased significantly	IC50 (BB2R [2]): 6.9 µM; IC50 (BRS-3 [3]): 10.8 µM
3.6 ± 0.5	1.4 ± 0.2	5.5 ± 0.6	blocked	no effect	0^a nM			0^a nM	16	1 ± 0.6^a nM			no effect	COc1ccc(NC(=O)N[C@H](Cc2c[nH]c3ccccc23)C(=O)NCC2(c3cccnc3)CCCCC2)cc1 [AM-37, (R)-3-(1H-indol-3-yl)-2-[3-(4-methoxyphenyl)ureido]-N-[[1-(3-pyridinyl)cyclohexyl]methyl]propanamide]		addition of BA1 had little effect	decreased significantly	Effect on NCI-H1299 proliferation (NCI-H1299 cells; 3 µM): little effect; Effect on NCI-H1299 proliferation (NCI-H1299 cells; 30 µM): strongly inhibited

More lines, now with the values behind:

SMILES	Ki (BB1R [1]) [µM]	Ki (BB2R [2]) [µM]	Ki (BRS-3 [3]) [µM]	Effect on the increase in cytosolic Ca2+ caused by BA1 (BB1R [4]; 10 nM BA1)	Effect on basal cytosolic Ca2+ (BB1R [4])	Increase in cytosolic Ca2+, BB2R (BB2R [5]; [7])	Effect on the increase in cytosolic Ca2+ caused by BA1 (BB2R [5]; 10 nM BA1)	Effect on basal cytosolic Ca2+ (BB2R [5])	Increase in cytosolic Ca2+, BRS-3 (BRS-3 [6]; [7])	IC50 (NCI-H1299 cells) [µM]	Increase in cytosolic Ca2+, BB1R (BB1R [4]; [7])	Effect on the increase in cytosolic Ca2+ caused by BA1 (BRS-3 [6]; 10 nM BA1)	Effect on basal cytosolic Ca2+ (BRS-3 [6])	Effect on the ability of NT to increase cytosolic Ca2+ (NTR)	Effect on the ability of ION to increase Ca2+ (NSCLC cells)	Effect of pretreatment on BA1-induced EGFR tyrosine phosphorylation (EGFR)	Effect of pretreatment on BA1-induced ERK tyrosine phosphorylation (ERK)	other results
COc1ccc(NC(=O)N[C@@H](Cc2c[nH]c3ccccc23)C(=O)NCC2(c3ccc(F)cc3)CCCCC2)cc1 [AM-14]	> 100	45 ± 8	> 100	partially blocked	no effect	6 + 0.5^a nM	partially blocked	no effect	3 + 0.4^a nM	> 50					no effect	little effect	little effect	
CCCC[C@H](NC(=O)[C@H](Cc1ccccc1)NC(=O)[C@H](Cc1c[nH]cn1)NC(=O)CCNC(=O)[C@@H](NC(=O)[C@H](C)NC(=O)[C@H](Cc1c[nH]c2ccccc12)NC(=O)[C@H](CCC(N)=O)NC(=O)[C@H](N)Cc1ccc(O)cc1)C(C)C)C(N)=O [BA1, (D-Tyr^6, β-Ala^11, Phe^13, Nle^14)BB^6–14, reference compound] (H-[dY]QWAV[βAla]HF[Nle]-NH2; N-terminus and C-terminus assumed)																		Cytosolic Ca2+ reached after BA1 (BB1R [4]; 10 nM BA1, from 160 nM, within seconds, Figure 2A): 178 nM; Increase in cytosolic Ca2+, BB1R (BB1R [4]; BA1 10 nM alone): 18.5 ± 1.1 nM; Cytosolic Ca2+ reached after BA1 (BB2R [5]; 10 nM BA1, from 160 nM, Figure 2D): 186 nM; Increase in cytosolic Ca2+, BB2R (BB2R [5]; BA1 10 nM alone): 26.3 ± 1.7 nM; Cytosolic Ca2+ reached after BA1 (BRS-3 [6]; 10 nM BA1, from 170 nM, Figure 2G): 194 nM; Increase in cytosolic Ca2+, BRS-3 (BRS-3 [6]; BA1 10 nM alone): 24.4 ± 2.3 nM; EGFR tyrosine phosphorylation (EGFR; [8]): 326%; ERK tyrosine phosphorylation (ERK; [8]): 277%
C[C@H](CCC(=O)O)C[C@H](C)C[C@H](C)C(=O)/C=C(\O)[C@H](C)C[C@H](C)C/C=C/[C@@H](C)[C@@H](O)[C@@H](C)[C@@H](O)C[C@@H]1CC[C@@](C)([C@H]2CC[C@@](C)([C@@H](C)O)O2)O1 [ionomycin, reference compound]																		Effect on cytosolic Ca2+ (NSCLC cells; 5 µg/ml): strongly increased
COc1ccc(NC(=O)N[C@H](Cc2c[nH]c3ccccc23)C(=O)NCC2(c3ccc(F)cc3)CCCCC2)cc1 [AM-13, (R)-N-[[1-(4-fluorophenyl)cyclohexyl]methyl]-3-(1H-indol-3-yl)-2-[3-(4-methoxyphenyl)ureido]propanamide]	> 100	27 ± 4	> 100			5 ± 0.6^a nM			2 ± 0.3^a nM		7 ± 0.8^a nM	partially blocked	no effect		no effect	BA1 increased strongly EGFR tyrosine phosphorylation	not	
